Results from patent publication US11639352B2, “Benzothiazole compounds for the treatment of autoimmune diseases” (Hoffmann-La Roche Inc., priority 2018, dated 2023).

molecular target: T1, human TLR9 (Homo sapiens, UniProt Q9NR96); assay: HEK293-Blue-hTLR-9 cells assay (SEAP reporter, ODN2006 stimulation); assay type: cell-based; conditions: HEK293-Blue-hTLR9 cells, ODN2006 ligand, 20 hrs incubation, antagonist
T1 sequence (Q9NR96 26-1032): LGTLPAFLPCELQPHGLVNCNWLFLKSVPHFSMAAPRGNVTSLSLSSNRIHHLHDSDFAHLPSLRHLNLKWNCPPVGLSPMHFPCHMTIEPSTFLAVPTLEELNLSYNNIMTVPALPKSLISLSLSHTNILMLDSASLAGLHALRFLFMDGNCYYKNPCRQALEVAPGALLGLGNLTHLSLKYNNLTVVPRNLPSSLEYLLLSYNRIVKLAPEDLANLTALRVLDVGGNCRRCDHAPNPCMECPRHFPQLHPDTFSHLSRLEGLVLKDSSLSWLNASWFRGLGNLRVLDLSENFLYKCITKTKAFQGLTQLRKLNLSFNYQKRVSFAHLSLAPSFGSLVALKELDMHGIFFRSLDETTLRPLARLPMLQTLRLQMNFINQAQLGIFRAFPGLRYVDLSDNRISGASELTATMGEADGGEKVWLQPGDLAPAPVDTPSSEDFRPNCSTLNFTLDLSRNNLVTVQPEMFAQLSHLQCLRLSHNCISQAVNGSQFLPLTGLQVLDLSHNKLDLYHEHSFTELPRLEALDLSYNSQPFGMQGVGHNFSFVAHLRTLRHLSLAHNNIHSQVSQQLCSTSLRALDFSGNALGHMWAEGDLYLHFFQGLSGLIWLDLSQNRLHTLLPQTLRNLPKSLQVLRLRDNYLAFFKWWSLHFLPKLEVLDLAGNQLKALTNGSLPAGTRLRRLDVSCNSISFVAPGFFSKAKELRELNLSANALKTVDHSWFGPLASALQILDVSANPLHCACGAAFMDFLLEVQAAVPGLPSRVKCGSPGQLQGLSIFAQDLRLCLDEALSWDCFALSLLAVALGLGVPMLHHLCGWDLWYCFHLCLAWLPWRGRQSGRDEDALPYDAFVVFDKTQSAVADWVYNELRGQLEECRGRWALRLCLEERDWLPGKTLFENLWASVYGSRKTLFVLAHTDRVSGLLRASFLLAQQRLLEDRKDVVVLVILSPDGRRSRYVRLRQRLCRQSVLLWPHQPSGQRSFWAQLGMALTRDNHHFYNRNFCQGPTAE
Procedure: The following tests were carried out in order to determine the activity of the compounds of formula (I) in HEK293-Blue-hTLR-7/8/9 cells assay.
HEK293-Blue-hTLR-9 Cells Assay:
A stable HEK293-Blue-hTLR-9 cell line was purchased from InvivoGen (Cat. #: hkb-htlr9, San Diego, Calif., USA). These cells were originally designed for studying the stimulation of human TLR9 by monitoring the activation of NF-κB. A SEAP (secreted embryonic alkaline phosphatase) reporter gene was placed under the control of the IFN-β minimal promoter fused to five NF-κB and AP-1-binding sites. The SEAP was induced by activating NF-κB and AP-1 via stimulating HEK-Blue hTLR9 cells with TLR9 ligands. Therefore the reporter expression was declined by TLR9 antagonist under the stimulation of a ligand, such as ODN2006 (Cat. #: tlrl-2006-1, Invivogen, San Diego, Calif., USA), for incubation of 20 hrs. The cell culture supernatant SEAP reporter activity was determined using QUANTI-Blue™ kit (Cat. #: rep-qb1, Invivogen, San Diego, Calif., USA) at a wavelength of 640 nm, a detection medium that turns purple or blue in the presence of alkaline phosphatase.
HEK293-Blue-hTLR9 cells were incubated at a density of […] cells/mL in a volume of 170 μL in a 96-well plate in Dulbecco's Modified Eagle's medium (DMEM) containing 4.5 g/L glucose, 50 U/mL penicillin, […], 2 mM L-glutamine, 10% (v/v) heat-inactivated fetal bovine serum with addition of 20 μL test compound in a serial dilution in the presence of final DMSO at 1% and 10 μL of 20 uM ODN2006 in above DMEM, perform incubation under 37° C. in a CO2 incubator for 20 hrs. Then 20 μL of the supernatant from each well was incubated with 180 μL Quanti-blue substrate solution at 37° C. for 2 hrs and the absorbance was read at 620˜655 nm using a spectrophotometer. The signalling pathway that TLR9 activation leads to downstream NF-κB activation has been widely accepted, and therefore similar reporter assay was modified for evaluating TLR9 antagonist.

`C[C@@H]1CN(c2ccc(C#N)c3ncsc23)C[C@H](CN2CCC3(CCCNC3)C2)O1` (stereo partly drawn) [Example 1, 7-[(2S,6R)-2-(2,9-diazaspiro[4.5]decan-2-ylmethyl)-6-methyl-morpholin-4-yl]-1,3-benzothiazole-4-carbonitrile] and `C[C@@H]1CN(c2ccc(C#N)c3ncsc23)C[C@H](CN2CC3(CCCNC3)C2)O1` [Example 4, 7-[(2S,6R)-2-(2,8-diazaspiro[3.5]nonan-2-ylmethyl)-6-methyl-morpholin-4-yl]-1,3-benzothiazole-4-carbonitrile] are within 1.5-fold of each other in IC50: 87 nM for the first, 101 nM for the second.

Compared with `C[C@@H]1CN(c2ccc(C#N)c3ncsc23)C[C@H](CN2CCC(N)CC2)O1` [Example 2, 7-[(2S,6R)-2-[(4-amino-1-piperidyl)methyl]-6-methyl-morpholin-4-yl]-1,3-benzothiazole-4-carbonitrile], `C[C@@H]1CN(c2ccc(C#N)c3ncsc23)C[C@H](CN2[C@@H]3CC[C@H]2C[C@@H](N)C3)O1` [Example 8, Endo-7-[(2S,6R)-2-[[(1R,5S)-3-amino-8-azabicyclo[3.2.1]octan-8-yl]methyl]-6-methyl-morpholin-4-yl]-1,3-benzothiazole-4-carbonitrile] is 2.8-fold lower in IC50: 300 nM for the first, 109 nM for the second.

`C[C@@H]1CN(c2ccc(C#N)c3ncsc23)C[C@H](CN2CCC3(CCCNC3)CC2)O1` [Example 3, 7-[(2S,6R)-2-(2,9-diazaspiro[5.5]undecan-9-ylmethyl)-6-methyl-morpholin-4-yl]-1,3-benzothiazole-4-carbonitrile] and `C[C@@H]1CN(c2ccc(C#N)c3ncsc23)C[C@H](CN2CCC3(CCNC3)CC2)O1` [Example 6, 7-[(2S,6R)-2-(2,8-diazaspiro[4.5]decan-8-ylmethyl)-6-methyl-morpholin-4-yl]-1,3-benzothiazole-4-carbonitrile] are within 1.5-fold of each other in IC50: 77 nM for the first, 98 nM for the second.

Going from `C[C@@H]1CN(c2ccc(C#N)c3ncsc23)C[C@H](CN2CCC3(CCNCC3)CC2)O1` [Example 5, 7-[(2S,6R)-2-(3,9-diazaspiro[5.5]undecan-3-ylmethyl)-6-methyl-morpholin-4-yl]-1,3-benzothiazole-4-carbonitrile] to `C[C@@H]1CN(c2ccc(C#N)c3ncsc23)C[C@H](CN2CCC3(CCCN(C)C3)CC2)O1` [Example 10, 7-[(2R,6S)-2-methyl-6-[(2-methyl-2,9-diazaspiro[5.5]undecan-9-yl)methyl]morpholin-4-yl]-1,3-benzothiazole-4-carbonitrile], the IC50 falls from 145 nM to 77 nM (1.9-fold). The second is the more potent here.

First: C[C@@H]1CN(c2ccc(C#N)c3ncsc23)C[C@H](CN2CCC(N3CCCCC3)CC2)O1 [Example 7, 7-[(2R,6S)-2-methyl-6-[[4-(1-piperidyl)-1-piperidyl]methyl]morpholin-4-yl]-1,3-benzothiazole-4-carbonitrile]
Second: C[C@@H]1CN(c2ccc(C#N)c3ncsc23)C[C@H](CN2[C@@H]3CC[C@H]2C[C@H](N)C3)O1 [Example 9, Exo-7-[(2S,6R)-2-[[(1S,5R)-3-amino-8-azabicyclo[3.2.1]octan-8-yl]methyl]-6-methyl-morpholin-4-yl]-1,3-benzothiazole-4-carbonitrile]
The IC50 of the first is 1.8-fold higher: 118 nM for the first, 65 nM for the second. The second is the more potent here.

Compared with `C[C@@H]1CN(c2ccc(C#N)c3ncsc23)C[C@H](C(=O)NC2CCN(C)CC2)O1` [Example 11, (2R,6R)-4-(4-cyano-1,3-benzothiazol-7-yl)-6-methyl-N-(1-methyl-4-piperidyl)morpholine-2-carboxamide], `C[C@@H]1CN(c2ccc(C#N)c3ncsc23)C[C@H](C(=O)NCC2CN(C)CCO2)O1` (stereo partly drawn) [Example 12, (2R,6R)-4-(4-cyano-1,3-benzothiazol-7-yl)-6-methyl-N-[(4-methylmorpholin-2-yl)methyl]morpholine-2-carboxamide] is 2.1-fold higher in IC50: 17500 nM for the first, 36800 nM for the second. The first is the more potent here.
